How the values were obtained:
AR = AR (Homo sapiens, UniProt P10275); settings: cited from earlier work
[1] = pharmacokinetic study data, subjects with mild and moderate hepatic impairment versus healthy controls; assay type: in vivo, human
[2] = test system: non-castrate hormone-sensitive and bicalutamide-resistant human prostate cancer xenograft models; settings: cited from earlier work
T877A AR mutant = biological target: T1, T877A AR mutant (Homo sapiens, UniProt P10275, T878A); settings: cited from earlier work
T1 sequence (P10275 1-920 T878A): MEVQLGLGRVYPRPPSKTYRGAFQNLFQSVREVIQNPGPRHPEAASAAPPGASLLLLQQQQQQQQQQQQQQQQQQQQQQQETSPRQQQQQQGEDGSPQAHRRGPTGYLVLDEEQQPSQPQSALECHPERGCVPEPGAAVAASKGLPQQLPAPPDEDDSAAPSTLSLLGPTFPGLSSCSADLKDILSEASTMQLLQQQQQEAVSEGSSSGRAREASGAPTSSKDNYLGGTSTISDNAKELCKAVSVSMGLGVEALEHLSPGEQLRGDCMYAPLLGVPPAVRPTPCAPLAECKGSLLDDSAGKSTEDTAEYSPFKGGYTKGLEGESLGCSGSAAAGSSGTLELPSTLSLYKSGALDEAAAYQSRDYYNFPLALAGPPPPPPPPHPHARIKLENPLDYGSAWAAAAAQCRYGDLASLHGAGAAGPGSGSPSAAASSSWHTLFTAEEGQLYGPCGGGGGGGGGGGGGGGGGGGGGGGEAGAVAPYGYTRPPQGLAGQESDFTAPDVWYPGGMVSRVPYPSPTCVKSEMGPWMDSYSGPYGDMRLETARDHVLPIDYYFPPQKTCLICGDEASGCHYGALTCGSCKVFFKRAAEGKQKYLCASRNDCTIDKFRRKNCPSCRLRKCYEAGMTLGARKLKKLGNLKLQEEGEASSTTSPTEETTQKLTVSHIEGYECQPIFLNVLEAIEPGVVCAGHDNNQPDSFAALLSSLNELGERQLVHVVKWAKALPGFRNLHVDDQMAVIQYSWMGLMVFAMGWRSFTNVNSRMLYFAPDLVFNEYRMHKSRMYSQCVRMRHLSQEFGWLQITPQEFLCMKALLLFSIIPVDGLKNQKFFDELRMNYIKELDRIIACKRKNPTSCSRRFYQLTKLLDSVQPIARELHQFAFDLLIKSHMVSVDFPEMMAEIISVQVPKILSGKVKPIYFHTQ

Sequence of AR (P10275 whole entry): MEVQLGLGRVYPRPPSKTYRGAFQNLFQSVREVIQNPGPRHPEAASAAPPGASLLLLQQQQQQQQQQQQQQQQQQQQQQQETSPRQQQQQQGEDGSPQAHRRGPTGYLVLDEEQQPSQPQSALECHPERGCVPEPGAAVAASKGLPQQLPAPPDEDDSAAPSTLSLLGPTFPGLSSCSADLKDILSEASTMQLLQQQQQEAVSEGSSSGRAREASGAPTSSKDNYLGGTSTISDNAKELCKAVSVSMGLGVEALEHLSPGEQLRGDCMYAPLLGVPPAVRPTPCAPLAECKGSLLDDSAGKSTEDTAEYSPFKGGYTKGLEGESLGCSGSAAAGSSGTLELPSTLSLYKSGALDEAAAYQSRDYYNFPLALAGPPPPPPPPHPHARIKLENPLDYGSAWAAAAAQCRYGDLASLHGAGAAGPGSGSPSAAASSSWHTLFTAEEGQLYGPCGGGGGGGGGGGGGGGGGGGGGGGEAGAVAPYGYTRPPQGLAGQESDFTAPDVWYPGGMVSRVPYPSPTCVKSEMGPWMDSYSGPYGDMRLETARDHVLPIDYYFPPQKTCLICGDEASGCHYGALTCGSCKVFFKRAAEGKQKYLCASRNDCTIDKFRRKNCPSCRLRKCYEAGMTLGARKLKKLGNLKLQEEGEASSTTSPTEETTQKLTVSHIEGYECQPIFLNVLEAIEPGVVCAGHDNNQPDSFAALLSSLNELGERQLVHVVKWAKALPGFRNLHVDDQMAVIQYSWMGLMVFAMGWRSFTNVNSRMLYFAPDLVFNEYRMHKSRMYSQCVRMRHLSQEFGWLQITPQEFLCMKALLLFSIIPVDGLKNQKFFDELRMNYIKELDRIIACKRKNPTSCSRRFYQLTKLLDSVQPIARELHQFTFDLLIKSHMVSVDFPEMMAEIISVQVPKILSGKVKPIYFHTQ

Question: With `CC(O)c1cc(C(=O)N[C@@H](C)Cn2ccc(-c3ccc(C#N)c(Cl)c3)n2)n[nH]1` (stereo partly drawn) [Darolutamide, N-{(2S)-1-[3-(3-chloro-4-cyanophenyl)-1H-pyrazol-1-yl]propan-2-yl}-5-(1-hydroxyethyl)-1H-pyrazole-3-carboxamide] as the compound, how does the “binding affinity for AR” value (AR) read?
Answer: high affinity

Question: Which “total coefficient of variation (CV) for AUCs (AUClast and AUC∞)” value [1] does the source give for `CNC(=O)c1ccc(N2C(=S)N(c3cnc(C#N)c(C(F)(F)F)c3)C(=O)C23CCC3)cc1F` [apalutamide, 4-[7-(6-cyano-5-trifluoromethylpyridin-3-yl)-8-oxo-6-thioxo-5,7-diazaspiro[3.4]oct-5-yl]-2-fluoro-N-methylbenzamide] here?
Answer: ≤ 27%

Question: And the “total coefficient of variation (CV) for Cmax” value [1]?
Answer: ≤ 35%

Question: What about the tumor regression [2] of the same compound?
Answer: partial or complete tumor regression

Question: For `CC(C)(O)C(=O)Nc1ccc([N+](=O)[O-])c(C(F)(F)F)c1` [hydroxyflutamide], which agonist activity (T877A AR mutant) is on record?
Answer: act as AR agonists

Source: US11723898B2, “Androgen receptor inhibitors for the treatment of non-metastatic castration-resistant prostate cancer in subjects with severe hepatic impairment” (Aragon Pharmaceuticals, Inc., priority 2019, dated 2023)
